Tested on: REV1 CTD-REV7 interaction
Experiment: ELISA assay probing the REV1 CTD-REV7 interaction
Format: binding, mouse
Conditions: ratio of test compound IC50 to RE01 IC50
Protocol: The ELISA assay for probing the REV1 CTD-REV7 interaction was carried out by immobilizing 50 nM His8-tagged REV7/3 in 200 μL phosphate-buffered saline (PBS, Gibco) containing 0.2% BSA in a Ni-NTA coated 96-well plate (HisSorb, Qiagen) for 30 minutes. Unbound His8-tagged REV7/3 was removed by washing the wells four times with PBS containing 0.05% Tween-20. […] After incubation for 30 minutes, the wells were washed four times with PBS containing 0.05% Tween-20 to remove the unbound FLAG-tagged POL κ RIR-REV1 CTD. A solution of the anti-FLAG horseradish peroxidase (HRP)-conjugated antibody (Sigma-Aldrich) in PBS containing 0.2% BSA was then added to the wells. After incubating for 1 hour, the antibody was washed off four times with PBS containing 0.05% Tween-20. The 3,3′,5,5′-tetramethylbenzedine (TMB) substrate (SureBlue TMB, Seracare) was added to the wells. After incubation of 20-30 minutes, the reaction was quenched with 1 M HCl. A SpectraMax plate reader (Molecular Devices) was used to measure absorbance at 450 nm.

Compound	Relative IC50 Ratio
Cc1ccc(Nc2[nH]c3c(Cl)ccc([N+](=O)[O-])c3c(=O)c2C(=O)CC(C)C)c(C)c1 [RE22, 8-chloro-2-((2,4-dimethylphenyl)amino)-3-(3-methylbutanoyl)-5-nitroquinolin-4(1H)-one]	C (C represents a ratio of test compound IC50 to RE01 IC50 between 1.5-10)
COc1ccc([N+](=O)[O-])c2c(=O)c(C(=O)CC(C)C)c(Nc3ccc(Cl)cc3Cl)[nH]c12 [RE37, 2-((2,4-dichlorophenyl)amino)-8-methoxy-3-(3-methylbutanoyl)-5-nitroquinolin-4(1H)-one]	C (C represents a ratio of test compound IC50 to RE01 IC50 between 1.5-10)
CC(C)CC(=O)c1c(Nc2ccc(Cl)cc2Cl)[nH]c2c(Cl)ccc(O)c2c1=O [RE30, 8-chloro-2-((2,4-dichlorophenyl)amino)-5-hydroxy-3-(3-methylbutanoyl)quinolin-4(1H)-one]	C (C represents a ratio of test compound IC50 to RE01 IC50 between 1.5-10)
O=C(O)/C(O)=C/C(=O)c1c(Nc2ccc(Cl)cc2Cl)[nH]c2c(Cl)ccc([N+](=O)[O-])c2c1=O [RE13, (Z)-4-(8-chloro-2-((2,4-dichlorophenyl)amino)-5-nitro-4-oxo-1,4-dihydroquinolin-3-yl)-2-hydroxy-4-oxobut-2-enoic acid]	A (A represents a ratio of test compound IC50 to RE01 IC50 of less than 0.8)
CC(C)CC(=O)c1c(Nc2ccc(Cl)cc2Cl)[nH]c2c(F)ccc([N+](=O)[O-])c2c1=O [RE38, 2-((2,4-dichlorophenyl)amino)-8-fluoro-3-(3-methylbutanoyl)-5-nitroquinolin-4(1H)-one]	B (B represents a ratio of test compound IC50 so to RE1 IC50 between 0.8 and 1.5)
CC(C)CC(=O)c1c(Nc2ccc(Cl)cc2C(F)(F)F)[nH]c2c(Cl)ccc([N+](=O)[O-])c2c1=O [RE18, 8-chloro-2-((4-chloro-2-(trifluoromethyl)phenyl)amino)-3-(3-methylbutanoyl)-5-nitroquinolin-4(1H)-one]	A (A represents a ratio of test compound IC50 to RE01 IC50 of less than 0.8)
CC(C)CC(=O)c1c(Nc2ccc(F)cc2F)[nH]c2c(Cl)ccc([N+](=O)[O-])c2c1=O [RE24, 8-chloro-2-((2,4-difluorophenyl)amino)-3-(3-methylbutanoyl)-5-nitroquinolin-4(1H)-one]	C (C represents a ratio of test compound IC50 to RE01 IC50 between 1.5-10)
CC(=NO)c1c(Nc2ccc(Cl)cc2Cl)[nH]c2c(Cl)ccc([N+](=O)[O-])c2c1=O [RE14, 8-chloro-2-((2,4-dichlorophenyl)amino)-3-(1-(hydroxyimino)ethyl)-5-nitroquinolin-4(1H)-one]	B (B represents a ratio of test compound IC50 so to RE1 IC50 between 0.8 and 1.5)
CC(C)CC(=O)c1c(Nc2ccc(Cl)cc2Cl)[nH]c2cc([N+](=O)[O-])ccc2c1=O [RE35, 2-((2,4-dichlorophenyl)amino)-3-(3-methylbutanoyl)-7-nitroquinolin-4(1H)-one]	A (A represents a ratio of test compound IC50 to RE01 IC50 of less than 0.8)
CC(C)CC(=O)c1c(Nc2ccc(Cl)cc2Cl)[nH]c2c(Cl)ccc(N)c2c1=O [RE11, 5-amino-8-chloro-2-((2,4-dichlorophenyl)amino)-3-(3-methylbutanoyl)quinolin-4(1H)-one]	C (C represents a ratio of test compound IC50 to RE01 IC50 between 1.5-10)
CC(C)CC(=O)c1c(Nc2ccc(Cl)cc2Cl)[nH]c2c(Cl)ccc(C(=O)O)c2c1=O [RE09, 8-chloro-2-((2,4-dichlorophenyl)amino)-3-(3-methylbutanoyl)-4-oxo-1,4-dihydroquinoline-5-carboxylic acid]	B (B represents a ratio of test compound IC50 so to RE1 IC50 between 0.8 and 1.5)
CC(C)CC(=O)c1c(Nc2ccc(C(=O)O)cc2Cl)[nH]c2c(Cl)ccc([N+](=O)[O-])c2c1=O [RE06, 3-chloro-4-((8-chloro-3-(3-methylbutanoyl)-5-nitro-4-oxo-1,4-dihydroquinolin-2-yl)amino)benzoic acid]	C (C represents a ratio of test compound IC50 to RE01 IC50 between 1.5-10)
CC(C)CC(=O)c1c(Nc2ccc(Cl)c(Cl)c2)[nH]c2c(Cl)ccc([N+](=O)[O-])c2c1=O [RE31, 8-chloro-2-((3,4-dichlorophenyl)amino)-3-(3-methylbutanoyl)-5-nitroquinolin-4(1H)-one]	C (C represents a ratio of test compound IC50 to RE01 IC50 between 1.5-10)
CC(C)CC(=O)c1c(Nc2ccc(Cl)cc2Cl)[nH]c2c(Br)ccc([N+](=O)[O-])c2c1=O [RE39, 8-bromo-2-((2,4-dichlorophenyl)amino)-3-(3-methylbutanoyl)-5-nitroquinolin-4(1H)-one]	B (B represents a ratio of test compound IC50 so to RE1 IC50 between 0.8 and 1.5)
CC(C)CC(=O)c1c(Nc2ccc(Cl)cc2Cl)[nH]c2c(Cl)ccc(C(F)(F)F)c2c1=O [RE26, 8-chloro-2-((2,4-dichlorophenyl)amino)-3-(3-methylbutanoyl)-5-(trifluoromethyl)quinolin-4(1H)-one]	C (C represents a ratio of test compound IC50 to RE01 IC50 between 1.5-10)
CC(C)CC(=O)c1c(Nc2ccc(I)cc2I)[nH]c2c(Cl)ccc([N+](=O)[O-])c2c1=O [RE17, 8-chloro-2-((2,4-diiodophenyl)amino)-3-(3-methylbutanoyl)-5-nitroquinolin-4(1H)-one]	B (B represents a ratio of test compound IC50 so to RE1 IC50 between 0.8 and 1.5)
CC(C)CC(=O)c1c(Nc2ccc(Cl)cc2)[nH]c2c(Cl)ccc([N+](=O)[O-])c2c1=O [RE20, 8-chloro-2-((4-chlorophenyl)amino)-3-(3-methylbutanoyl)-5-nitroquinolin-4(1H)-one]	C (C represents a ratio of test compound IC50 to RE01 IC50 between 1.5-10)
CC(C)CC(=O)c1c(Nc2ccc(C(C)C)cc2)[nH]c2c(Cl)ccc([N+](=O)[O-])c2c1=O [RE21, 8-chloro-2-((4-isopropylphenyl)amino)-3-(3-methylbutanoyl)-5-nitroquinolin-4(1H)-one]	C (C represents a ratio of test compound IC50 to RE01 IC50 between 1.5-10)
CC(C)CC(=O)c1c(Nc2ccc(Cl)cc2Cl)[nH]c2c(Cl)cc([N+](=O)[O-])cc2c1=O [RE34, 8-chloro-2-((2,4-dichlorophenyl)amino)-3-(3-methylbutanoyl)-6-nitroquinolin-4(1H)-one]	A (A represents a ratio of test compound IC50 to RE01 IC50 of less than 0.8)
CC(C)CC(=O)c1c(Nc2c(F)cc(F)cc2F)[nH]c2c(Cl)ccc([N+](=O)[O-])c2c1=O [RE33, 8-chloro-3-(3-methylbutanoyl)-5-nitro-2-((2,4,6-trifluorophenyl)amino)quinolin-4(1H)-one]	C (C represents a ratio of test compound IC50 to RE01 IC50 between 1.5-10)
Cc1ccc(Cl)c2[nH]c(Nc3ccc(Cl)cc3Cl)c(C(=O)CC(C)C)c(=O)c12 [RE27, 8-chloro-2-((2,4-dichlorophenyl)amino)-5-methyl-3-(3-methylbutanoyl)quinolin-4(1H)-one]	C (C represents a ratio of test compound IC50 to RE01 IC50 between 1.5-10)
CC(C)CC(=O)c1c(Nc2ccccc2)[nH]c2c(Cl)ccc([N+](=O)[O-])c2c1=O [RE16, 8-chloro-3-(3-methylbutanoyl)-5-nitro-2-(phenylamino)quinolin-4(1H)-one]	C (C represents a ratio of test compound IC50 to RE01 IC50 between 1.5-10)
CC(O)c1c(Nc2ccc(Cl)cc2Cl)[nH]c2c(Cl)ccc([N+](=O)[O-])c2c1=O (stereo not shown) [RE15, 8-chloro-2-((2,4-dichlorophenyl)amino)-3-(1-hydroxyethyl)-5-nitroquinolin-4(1H)-one]	B (B represents a ratio of test compound IC50 so to RE1 IC50 between 0.8 and 1.5)
CC(C)CC(=O)c1c(Nc2ccc(Cl)cc2Cl)[nH]c2c(C(=O)O)ccc([N+](=O)[O-])c2c1=O [RE10, 2-((2,4-dichlorophenyl)amino)-3-(3-methylbutanoyl)-5-nitro-4-oxo-1,4-dihydroquinoline-8-carboxylic acid]	B (B represents a ratio of test compound IC50 so to RE1 IC50 between 0.8 and 1.5)
CC(C)CC(=O)c1c(Nc2ccc3ccccc3c2)[nH]c2c(Cl)ccc([N+](=O)[O-])c2c1=O [RE19, 8-chloro-3-(3-methylbutanoyl)-2-(naphthalen-2-ylamino)-5-nitroquinolin-4(1H)-one]	B (B represents a ratio of test compound IC50 so to RE1 IC50 between 0.8 and 1.5)
CC(C)CC(=O)c1c(Nc2ccc(Cl)cc2Cl)[nH]c2c(Cl)cccc2c1=O [RE25, 8-chloro-2-((2,4-dichlorophenyl)amino)-3-(3-methylbutanoyl)quinolin-4(1H)-one]	C (C represents a ratio of test compound IC50 to RE01 IC50 between 1.5-10)
CC(=O)c1c(Nc2ccc(Cl)cc2Cl)[nH]c2c(Cl)ccc([N+](=O)[O-])c2c1=O [RE12, 3-acetyl-8-chloro-2-((2,4-dichlorophenyl)amino)-5-nitroquinolin-4(1H)-one]	B (B represents a ratio of test compound IC50 so to RE1 IC50 between 0.8 and 1.5)
CC(C)CC(=O)c1c(Nc2ccc(Br)cc2Br)[nH]c2c(Cl)ccc([N+](=O)[O-])c2c1=O [RE04, 8-chloro-2-((2,4-dibromophenyl)amino)-3-(3-methylbutanoyl)-5-nitroquinolin-4(1H)-one]	B (B represents a ratio of test compound IC50 so to RE1 IC50 between 0.8 and 1.5)

— patent US11801242B2, “Compositions and methods for adjuvant cancer therapeutics” (DUKE UNIVERSITY, priority 2018, dated 2023)
